# Peptide text beside a SMILES is read from it. * marks the point of attachment. Cbz = O=C(OCc1ccccc1)*
# T1: KDM4B (UniProt O94953 1-1096)
# T1 construct: Endogenous KDM4B in MCF-7 nuclear extract or cell lysate; also called histone lysine demethylase KDM4B
# T1 sequence (looked up): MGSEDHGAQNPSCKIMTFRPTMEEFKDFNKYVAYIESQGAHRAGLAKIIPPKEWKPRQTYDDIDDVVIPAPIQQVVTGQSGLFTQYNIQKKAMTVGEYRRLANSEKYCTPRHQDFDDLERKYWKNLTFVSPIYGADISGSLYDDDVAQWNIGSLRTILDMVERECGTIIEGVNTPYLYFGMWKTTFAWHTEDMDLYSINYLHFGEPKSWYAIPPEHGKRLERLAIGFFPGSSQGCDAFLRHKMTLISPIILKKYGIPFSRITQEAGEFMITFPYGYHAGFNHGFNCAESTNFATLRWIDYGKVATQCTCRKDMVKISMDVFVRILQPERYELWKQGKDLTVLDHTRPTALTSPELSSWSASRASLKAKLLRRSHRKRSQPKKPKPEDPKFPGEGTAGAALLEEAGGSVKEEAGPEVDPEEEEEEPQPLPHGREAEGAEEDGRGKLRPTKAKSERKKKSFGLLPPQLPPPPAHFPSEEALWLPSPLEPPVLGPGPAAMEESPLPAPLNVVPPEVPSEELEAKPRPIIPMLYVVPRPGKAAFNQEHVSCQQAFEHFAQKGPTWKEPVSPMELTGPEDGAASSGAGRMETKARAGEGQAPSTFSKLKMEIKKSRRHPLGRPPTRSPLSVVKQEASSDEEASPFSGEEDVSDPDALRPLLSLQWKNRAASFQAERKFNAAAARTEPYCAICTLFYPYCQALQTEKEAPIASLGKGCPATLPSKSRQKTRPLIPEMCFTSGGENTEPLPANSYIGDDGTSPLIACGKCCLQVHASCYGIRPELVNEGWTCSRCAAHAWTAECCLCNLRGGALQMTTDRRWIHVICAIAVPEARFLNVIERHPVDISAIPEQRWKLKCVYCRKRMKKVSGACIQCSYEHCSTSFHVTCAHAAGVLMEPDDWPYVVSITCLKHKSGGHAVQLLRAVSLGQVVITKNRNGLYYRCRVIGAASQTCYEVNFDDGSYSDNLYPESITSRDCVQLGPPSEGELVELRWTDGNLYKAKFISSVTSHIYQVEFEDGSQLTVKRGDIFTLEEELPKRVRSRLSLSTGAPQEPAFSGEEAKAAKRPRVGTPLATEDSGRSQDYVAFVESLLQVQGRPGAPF
# B1: Estrogen receptor α (ERα) (receptor, UniProt P03372 1-595, looked up)
# chain: MTMTLHTKASGMALLHQIQGNELEPLNRPQLKIPLERPLGEVYLDSSKPAVYNYPEGAAYEFNAAAAANAQVYGQTGLPYGPGSEAAAFGSNGLGGFPPLNSVSPSPLMLLHPPPQLSPFLQPHGQQVPYYLENEPSGYTVREAGPPAFYRPNSDNRRQGGRERLASTNDKGSMAMESAKETRYCAVCNDYASGYHYGVWSCEGCKAFFKRSIQGHNDYMCPATNQCTIDKNRRKSCQACRLRKCYEVGMMKGGIRKDRRGGRMLKHKRQRDDGEGRGEVGSAGDMRAANLWPSPLMIKRSKKNSLALSLTADQMVSALLDAEPPILYSEYDPTRPFSEASMMGLLTNLADRELVHMINWAKRVPGFVDLTLHDQVHLLECAWLEILMIGLVWRSMEHPGKLLFAPNLLLDRNQGKCVEGMVEIFDMLLATSSRFRMMNLQGEEFVCLKSIILLNSGVYTFLSSTLKSLEEKDHIHRVLDKITDTLIHLMAKAGLTLQQQHQRLAQLLLILSHIRHMSNKGMEHLYSMKCKNVVPLYDLLLEMLDAHRLHAPTSRGGASVEETDQSHLATAGSTSSHSLQKYYITGEAEGFPATV
# notes: Endogenous ERα in MCF-7 nuclear extract or cell lysate; also called ERalpha
# B2: wild-type FLAG-Fbxo22 (Wt) (other)
# chain: MEPVGCCGECRGSSVDPRSTFVLSNLAEVVERVLTFLPAKALLRVACVCRLWRECVRRVLRTHRSVTWISAGLAEAGHLEGHCLVRVVAEELENVRILPHTVLYMADSETFISLEECRGHKRARKRTSMETALALEKLFPKQCQVLGIVTPGIVVTPMGSGSNRPQEIEIGESGFALLFPQIEGIKIQPFHFIKDPKNLTLERHQLTEVGLLDNPELRVVLVFGYNCCKVGASNYLQQVVSTFSDMNIILAGGQVDNLSSLTSEKNPLDIDASGVVGLSFSGHRIQSATVLLNEDVSDEKTAEAAMQRLKAANIPEHNTIGFMFACVGRGFQYYRAKGNVEADAFRKFFPSVPLFGFFGNGEIGCDRIVTGNFILRKCNEVKDDDLFHSYTTIMALIHLGSSK
# notes: Dox-induced expression in MCF-7 cells; The tag is placed first by the order in the name; not shown: FLAG tag
# Assays:
# [1] = test system: ERα-dependent transcription; assay: qPCR of ERα target gene transcripts (EBAG9, GREB1) in MCF-7 cells; type: cell-based, human; conditions: for effect of removing Fbxo22 on the antagonistic activity: MCF-7 expressing Dox-induced shRNAs, E2 6 h then drug 12 h
# Protocol: (§1) Using total RNA derived from individual cells recovered over time, qPCR was carried out. […] Using total RNA prepared from the treated cells, qPCR was carried out. […] Using the nucleus extract, immunoprecipitation and immunoblotting were carried out.
# Using total RNA prepared from the cells over time, qPCR was carried out.
# (§2) Total RNA was prepared from the cells treated with various drugs, and qPCR was carried out.
# The cells were washed with PBS three times, and were then cultured in phenol red-non-added DMEM (supplemented with 5% charcoal-stripped FBS) for 72 hours.
# Quantitative RT-PCR was carried out according to the method described in Johmura et al., Molecular Cell 55: 73-84, 2014. Total RNA was extracted using ISOGEN II (Wako), and using this as a template, cDNA was synthesized using SuperScript II cDNA synthesis kit (Invitrogen). PCR amplification was carried out in a 96-well optical reaction plate, using Power SYBR Green PCR Master Mix (Applied Biosystems). The relative expression ratio of individual genes was normalized with respect to the expression level of GAPDH.
# [2] = test system: ERα complex with KDM4B and SRC-3
# Protocol: as §1
# The obtained cells were immunostained with anti-FLAG antibodies. Representative images are shown.
# as §2
# Immunoprecipitation and immunoblotting were carried out according to the method described in Johmura et al., Molecular Cell 55: 73-84, 2014. The cells were dissolved in a TBSN buffer (20 mM Tris-Cl (pH 8.0), 150 mM NaCl, 0.5% NP-40, 5 mM EGTA, 1.5 mM EDTA, and 0.5 mM Na3VO4). The obtained cell lysate was centrifuged at 4° C. at 15,000×g for 20 minutes, and was then used in immunoprecipitation using an antibody.
# Regarding immunoprecipitation of ERα and KDM4B, a nuclear extract was prepared according to the method described in Hirokawa et al., Cancer Res. 74: 3880-3889, 2014. Cell pellets were suspended in buffer A (10 mM Hepes-KOH pH 7.9, 10 mM KCl, 1.5 mM MgCl2, 0.5 mM DTT, 0.5 mM PMSF, and protease inhibitor cocktail (Nakalai Tesque)) having five times the volume of the cell pellets, and the suspension was then incubated on ice for 5 minutes. Thereafter, the cells were centrifuged at 4° C. at 500×g for 5 minutes, and the obtained cell pellets were then suspended in buffer A having two times the volume of the cell pellets for homogenization. The homogenized cell suspension was centrifuged at 4° C. at 4,000×g for 5 minutes, and a cell nucleus was recovered in a precipitate. To the recovered nucleus, an equal amount of buffer B (20 mM Hepes-KOH pH 7.9, 600 mM KCl, 1.5 mM MgCl2, 0.2 mM EDTA, 25% glycerol, 0.5 mM DTT, 0.5 mM PMSF, and protease inhibitor cocktail) was added and suspended, and the obtained mixture was then blended at 4° C. for 30 minutes, using a rotator. The nuclear extract was centrifuged at 4° C. at 16,000×g for 15 minutes, and was then recovered in a supernatant. The nuclear extract was dialyzed against buffer C (20 mM Hepes-KOH pH 7.9, 100 mM KCl, 0.2 mM EDTA, 20% glycerol, 0.5 mM DTT, and 0.5 mM PMSF). After completion of the dialysis, the nuclear extract was centrifuged at 4° C. at 16,000×g for 30 minutes, and the remaining precipitate was then eliminated.
# A protein (20 to 50 μg) was separated from the total cell lysate by SDS-PAGE, and was then transferred into a PVDF membrane (Millipore), which was then used in immunoblotting using various types of antibodies.
# [3] = test system: ERα; assay: ChIP-Seq analysis of ERα binding in MCF-7 cells; type: cell-based, human; conditions: 2 hours, E2 line = E2 (10 nM), 4-OHT line = E2+4-OHT
# Source text: Thereafter, DNA was extracted using a DNA purification column.
# [4] = biological target: T1, KDM4B; assay: co-IP (IP: ER) and immunoblot, MCF-7 nuclear extract after E2 (FIG. 2B)
# [5] = biological target: T2, N-CoR repressor (UniProt O75376 1-2440, limits assumed); assay: co-IP and immunoblot, control MCF-7 nuclear extract after E2 then 4-OHT (FIG. 5B)
# T2 construct: Endogenous corepressor in MCF-7 nuclear extract
# T2 sequence (O75376 whole entry): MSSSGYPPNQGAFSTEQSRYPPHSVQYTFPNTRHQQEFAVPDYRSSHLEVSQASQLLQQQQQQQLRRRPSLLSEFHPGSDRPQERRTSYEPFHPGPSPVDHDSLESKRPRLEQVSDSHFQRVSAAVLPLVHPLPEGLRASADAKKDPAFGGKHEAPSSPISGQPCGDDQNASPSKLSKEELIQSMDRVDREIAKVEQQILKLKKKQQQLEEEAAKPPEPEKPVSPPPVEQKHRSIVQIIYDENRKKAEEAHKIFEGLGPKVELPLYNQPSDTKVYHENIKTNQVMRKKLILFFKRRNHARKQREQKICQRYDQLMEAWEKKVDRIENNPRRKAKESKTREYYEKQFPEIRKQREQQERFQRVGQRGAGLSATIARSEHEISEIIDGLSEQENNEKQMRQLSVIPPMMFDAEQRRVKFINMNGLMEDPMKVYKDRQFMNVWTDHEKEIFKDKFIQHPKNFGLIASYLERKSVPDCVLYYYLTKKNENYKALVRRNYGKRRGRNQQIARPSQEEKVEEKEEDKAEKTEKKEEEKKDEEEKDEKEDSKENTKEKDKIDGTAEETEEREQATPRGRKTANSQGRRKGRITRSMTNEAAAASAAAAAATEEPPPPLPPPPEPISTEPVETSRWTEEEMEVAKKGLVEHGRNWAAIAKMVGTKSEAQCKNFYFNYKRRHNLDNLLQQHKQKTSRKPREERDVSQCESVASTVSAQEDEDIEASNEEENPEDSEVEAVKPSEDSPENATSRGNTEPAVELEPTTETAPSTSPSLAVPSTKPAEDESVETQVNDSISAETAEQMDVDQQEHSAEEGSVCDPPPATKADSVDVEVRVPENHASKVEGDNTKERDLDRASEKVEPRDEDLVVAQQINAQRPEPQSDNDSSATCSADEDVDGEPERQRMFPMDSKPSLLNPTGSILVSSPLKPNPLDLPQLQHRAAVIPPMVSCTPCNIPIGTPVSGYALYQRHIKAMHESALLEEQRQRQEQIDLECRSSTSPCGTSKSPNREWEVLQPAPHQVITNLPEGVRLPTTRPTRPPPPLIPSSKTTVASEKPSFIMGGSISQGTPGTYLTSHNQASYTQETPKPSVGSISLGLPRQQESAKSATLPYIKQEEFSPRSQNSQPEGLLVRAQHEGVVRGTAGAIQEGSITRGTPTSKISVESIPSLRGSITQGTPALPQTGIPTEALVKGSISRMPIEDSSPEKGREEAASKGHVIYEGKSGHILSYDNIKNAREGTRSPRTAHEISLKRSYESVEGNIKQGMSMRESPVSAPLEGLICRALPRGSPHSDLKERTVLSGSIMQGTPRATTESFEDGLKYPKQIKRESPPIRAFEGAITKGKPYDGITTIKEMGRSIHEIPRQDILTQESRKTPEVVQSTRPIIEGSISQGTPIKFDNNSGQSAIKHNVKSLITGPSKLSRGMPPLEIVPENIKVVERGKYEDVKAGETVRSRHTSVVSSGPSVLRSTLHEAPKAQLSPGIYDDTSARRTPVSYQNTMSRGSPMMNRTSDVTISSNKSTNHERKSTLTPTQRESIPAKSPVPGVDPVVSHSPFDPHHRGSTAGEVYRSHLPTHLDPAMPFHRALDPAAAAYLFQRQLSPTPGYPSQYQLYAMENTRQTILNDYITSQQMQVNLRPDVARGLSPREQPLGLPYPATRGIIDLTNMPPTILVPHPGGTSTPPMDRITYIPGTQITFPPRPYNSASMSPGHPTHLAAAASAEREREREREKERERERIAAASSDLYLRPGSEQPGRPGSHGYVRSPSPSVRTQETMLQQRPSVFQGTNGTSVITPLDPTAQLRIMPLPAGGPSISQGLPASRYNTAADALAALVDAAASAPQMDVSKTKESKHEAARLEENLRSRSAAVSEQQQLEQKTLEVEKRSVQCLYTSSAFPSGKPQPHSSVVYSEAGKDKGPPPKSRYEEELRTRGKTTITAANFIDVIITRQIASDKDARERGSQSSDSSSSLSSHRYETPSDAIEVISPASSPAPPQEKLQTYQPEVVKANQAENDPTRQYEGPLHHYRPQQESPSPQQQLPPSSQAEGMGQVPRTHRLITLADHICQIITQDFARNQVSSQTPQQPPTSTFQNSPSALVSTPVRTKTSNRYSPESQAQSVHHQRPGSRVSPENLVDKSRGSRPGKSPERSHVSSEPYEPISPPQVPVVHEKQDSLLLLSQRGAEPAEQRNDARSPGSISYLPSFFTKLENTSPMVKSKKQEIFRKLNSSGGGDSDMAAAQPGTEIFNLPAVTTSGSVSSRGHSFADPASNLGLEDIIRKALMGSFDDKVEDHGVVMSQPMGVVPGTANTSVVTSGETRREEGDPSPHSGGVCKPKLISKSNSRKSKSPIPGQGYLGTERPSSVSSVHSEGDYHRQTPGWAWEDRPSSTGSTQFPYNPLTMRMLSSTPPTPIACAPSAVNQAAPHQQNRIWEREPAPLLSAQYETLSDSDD
# [6] = biological target: B1; assay: anti-FLAG co-IP and immunoblot, MCF-7 cells expressing FLAG-Fbxo22 Wt or domain-deficient mutants (FIG. 3G)
# [7] = biological target: T1, KDM4B; assay: co-IP and immunoblot, E2-depleted MCF-7 cells with MG132 and 0.1, 1 or 10 nM E2 (FIG. 3I)
molecule,measurement,setting,value
C[C@]12CC[C@@H]3c4ccc(O)cc4C[C@@H](CCCCCCCCC[S+]([O-])CCCC(F)(F)C(F)(F)F)[C@H]3[C@@H]1CC[C@@H]2O (stereo partly shown) [Fulvestrant],effect of removing Fbxo22 on the antagonistic activity,[1],no effects
same,need of Fbxo22 for the dynamics of cofactors in treated cells,"[2]; MCF-7, E2 plus drug",not necessary
CC(C)C[C@@H](C=O)NC(=O)[C@H](CC(C)C)NC(=O)[C@H](CC(C)C)NC(=O)OCc1ccccc1 [MG132] (Cbz-Leu-Leu-Leu-aldehyde),E2-induced transcriptional activity of EBAG9 and GREB1 after removal of E2,"[1]; MCF-7, E2 removed from medium, proteasome inhibitor added",recovered
same,transcript levels of EBAG9 and GREB1 after treatment with 4-OHT,"[1]; MCF-7, E2 then 4-OHT, in the presence of MG132 (10 μg/ml) compared with absence",maintained at high levels
same,"dynamics of cofactors (complex dissociation, N-CoR binding) after 4-OHT","[2]; MCF-7, E2+4-OHT+MG132",suppressed
same,dissociation of KDM4B and SRC-3 from ERα by elimination of E2,"[2]; MCF-7, E2 depletion plus proteasome inhibitor",suppressed
CN(C)CCOc1ccc(/C(=C(/CCCl)c2ccccc2)c2ccccc2)cc1 [Toremifene],effect of removing Fbxo22 on the antagonistic activity,[1],effects similar to those on 4-OHT
"C[C@]12CC[C@@H]3c4ccc(O)cc4CC[C@H]3[C@@H]1CC[C@@H]2O [E2, Estradiol]",ERα accumulation peaks detected,[3]; Fbxo22-depleted MCF-7 cells,"23,213"
same,ERα accumulation peaks detected,[3]; wild-type/control MCF-7 cells,"1,264"
B1,binding result,[4],binds
same,binding result,[5],binds
B2,binding result,[6],binds
same,binding result,[7],binds
